Conditions: Liquid

F/C=C/C(F)(F)F [trans-1,3,3,3-tetrafluoropropene]
Conditions	mass density [kg/m3]
285.5 K, 1018.5 kPa, isochoric method	1205.5
286.92 K, 2021.5 kPa, isochoric method	1205.4
288.32 K, 3010.5 kPa, isochoric method	1205.3
289.41 K, 3779.9 kPa, isochoric method	1205.2
291.42 K, 20124 kPa, isochoric method	1254.7
291.45 K, 5221.8 kPa, isochoric method	1205
298.03 K, 1062.5 kPa, isochoric method	1165.6
298.14 K, 9928.4 kPa, isochoric method	1204.5
298.15 K, 2000 kPa, Pycnometric method	1170.52
299.62 K, 2045.7 kPa, isochoric method	1165.5
301.21 K, 3025.5 kPa, isochoric method	1165.3
302.81 K, 4026.8 kPa, isochoric method	1165.2
304.38 K, 4991.3 kPa, isochoric method	1165.1
305.08 K, 14792 kPa, isochoric method	1203.9
312.4 K, 1349.3 kPa, isochoric method	1117.7
312.58 K, 10069 kPa, isochoric method	1164.5
312.58 K, 19938 kPa, isochoric method	1203.3
313.7 K, 2032.5 kPa, isochoric method	1117.6
315.61 K, 3038.9 kPa, isochoric method	1117.5
317.51 K, 4033.2 kPa, isochoric method	1117.4
319.6 K, 5142.9 kPa, isochoric method	1117.2
319.8 K, 24935 kPa, isochoric method	1202.7
320.41 K, 14882 kPa, isochoric method	1163.9
327 K, 29927 kPa, isochoric method	1202.2
328.71 K, 2042.5 kPa, isochoric method	1060.1
328.71 K, 9986.8 kPa, isochoric method	1116.5
328.72 K, 19949 kPa, isochoric method	1163.2
330.83 K, 2963.3 kPa, isochoric method	1060
333.13 K, 3964.2 kPa, isochoric method	1059.8
334.34 K, 34952 kPa, isochoric method	1201.6
335.43 K, 4968.4 kPa, isochoric method	1059.7
336.83 K, 24924 kPa, isochoric method	1162.6
337.81 K, 14797 kPa, isochoric method	1115.9
341.91 K, 40043 kPa, isochoric method	1201
345.09 K, 29935 kPa, isochoric method	1162
346.84 K, 9943.4 kPa, isochoric method	1058.9
347.53 K, 19908 kPa, isochoric method	1115.2
353.15 K, 12717 kPa, isochoric method	1058.5
353.15 K, 22854 kPa, isochoric method	1114.8
353.15 K, 34806 kPa, isochoric method	1161.4

Reference: the NIST ThermoML archive (doi:10.1021/je3008974)
